# In patent publication US7629317B2, “Control of growth and repair of gastro-intestinal tissues by gastrokines and inhibitors” (The University of Chicago, priority 2001, dated 2009):
# “Also recorded” adds a separate entry of the source.
# Legend:
# [1] = test system: mice with Pseudomonas aeruginosa-induced gut-derived sepsis; test: Pseudomonas aeruginosa-induced gut-derived sepsis in mice; type: in vivo, female Balb/c mice; details: 15 mg/kg i.p for 4 days, s.c. for 1 day; all vehicle animals dead; listed as AMP peptide
# Description: To determine if AMP peptide could play a cytoprotective role in GDS, a study was carried out in C2 cell monolayers that were exposed to the PA-I lectin. […] Next the effect of AMP peptide was studied in the mouse model of P. aeruginosa-induced-GDS (Laughlin et al., 2000) using female Balb/c mice subjected to 30% hepatectomy, injection of a solution of living P. aeruginosa into the cecum, and food deprivation postoperatively. All 8 of the mice survived surgery.
# [2] = test system: IEC-18 cells; test: Wound restitution (migration) of scrape-wounded IEC-18 cell monolayers; type: cell-based, rat
# Description: Confluent monolayer cultures were mechanically wounded by scraping with a razor blade, and the distance that cells migrated from the wound edge was measured using a microscope eyepiece reticle.
# In a separate set of experiments DSS reduced restitution of scrape-wounded cultures of non-transformed diploid rat intestinal epithelial IEC-18 cells (P<0.001) (FIG. 29, right panel). When DSS was removed by aspirating the medium and the cultures allowed to recover for 24 hr after scrape wounding, cell migration during the next 24 hr was 40% greater in the presence of AMP peptide compared to vehicle (P<0.001).
# [3] = test system: protein kinase (PK) C zeta (ζ); test: Phosphorylation of PKCζ in C2 cells (immunoblotting, confocal microscopy); type: cell-based, human; details: within 20 min
# From the text: To learn more about how AMP peptide could participate in the establishment of TJ structures and epithelial cell polarity during epithelial wound healing, attention was focused on protein kinase (PK) C zeta (ζ), an atypical PKC that appears to be required for assembly of TJs (Suzuki et al., 2001). PKCζ, presumably in its active form phospho-PKCζ, regulates TJs, apparently by interacting with several TJ-associated proteins including occludin, PAR-6, and PAR-3.
# [4] = test system: IEC-6 cells; test: [3H]thymidine incorporation into DNA in IEC-6 cells; type: cell-based, rat
# From the text: Growth stimulation by peptide 77-97 was additive with that of EGF. […] HAE cells were used to test whether AMP-18 can exert an effect on epithelial cells that exist in the local environment of its synthesis. These cells, provided by Dr. Duane Smoot, Howard University College of Medicine, are not completely immortalized and therefore have limited passage number. Growth stimulation of HAE cells by peptide 77-97 was apparently additive with that of EGF (FIG. 16, left panel). Not only does the AMP peptide stimulate growth but it also acted as a motogen, resulting in more rapid migration (restitution) of cells into scrape wounds made in confluent cultures. […] Near-maximal growth stimulation was detected at an AMP peptide concentration of 0.5 μg/ml (0.23 μM) (FIG. 15, center panel), a much lower value than the concentration needed for trefoil peptides (1 μg/μl) (˜150 μM) or the α-defensin, cryptdin 3 ([…]) (˜140 μM) to exert their effects in culture. […]
# Non-transformed monkey kidney epithelial cell line BSC-1 and other epithelial cell lines were used to assess effects on growth. […] AMP-18 preparations were added to the culture medium and 4 days later the cell monolayer was rinsed, detached with trypsin, and the cells were counted using a hemocytometer. […]
# [5] = test system: NCI N-87 cells; test: Growth of NCI N-87 gastric carcinoma cells; type: cell-based; details: concentration-dependent
# Description: To characterize the capacity of gastric and intestinal cells to respond to AMP-18, AGS gastric adenocarcinoma cells, HAE human gastric antrum mucosa primary cultures transformed with SV40 large T antigen, rat diploid small intestinal epithelial cells of the IEC-6 (FIG. 15) and IEC-18 lines, NCI N-87 gastric carcinoma cells, and SK-GT5 gastroesophageal adenocarcinoma cells were studied; human WI-38 fibroblasts and HeLa cells served as non-GI control cell lines. Mitogenesis was assayed by performing cell counts 3 to 4 days after exposing cells to the agent of interest, trypsinizing the culture to prepare single cells, and confirming this while counting them in a hemocytometer.
# [6] = test system: occludin; test: Occludin in mouse colonic mucosa in vivo (immunoblot of NP-40-insoluble fraction); details: listed as AMP peptide
# Description: To look for a systemic effect of treatment with AMP peptide during the development of DSS colitis, body weight was measured. During the first 4 days of DSS administration, body weight changed little in peptide- or vehicle-treated mice. Then DSS was discontinued, the animals were given water to drink (day 0; FIG. 27, right panel), and measurements of weight were continued. […] To better understand how AMP peptide could exert these salutary effects on hematochezia and weight loss in DSS colitis, studies were performed to determine if observations in cultures of C2 cells were also relevant in vivo. Because DSS treatment appeared to injure barrier function in monolayer cultures of C2 cells, assessed as a decrease in TER (FIG. 22) and reduced occludin in the detergent-insoluble fraction (FIG. 36), a question was whether DSS might adversely affect the content of this TJ protein in vivo. Mice (n=10) were given DSS (3%) or water to drink. Four days later animals were killed, the contents of the colon lumen including blood were washed out, and the mucosa was inspected. The colonic epithelial surface of mice given DSS appeared largely intact with no obvious ulcerations or denuded areas. Surface cells of visibly intact mucosa were then collected by scraping with a glass slide. Occludin levels in the NP-40-insoluble fraction were assessed by immunoblotting. […]
sequence,measurement,setting,value
"LDALVKEKKLQGKGPGGPPPK [97–117, peptide 77-97 of the mature protein, same as 97-117 of the human precursor]",survival one day after P. aeruginosa injection into the cecum,[1],alive and well
same,cell migration greater than vehicle after DSS removal,"[2]; 24 hr recovery after scrape wounding, next 24 hr, P<0.001",40%
same,migration from the wound edge compared with control,"[2]; each time point, P<0.005",migrated further
same,phosphorylation of PKCζ,[3],increase in phosphorylation
same,stimulation of [3H]thymidine incorporation into DNA,[4]; P<0.001,68%
same,[3H]thymidine incorporation into DNA,"[4]; with peptide, without 16,668±616","28,036±882"
same,growth of NCI N-87 cells,[5],stimulated
same,amount of β-catenin in colonic mucosal epithelial cells,[6],did not alter; also recorded: does not alter
